From ChEMBL document CHEMBL5150063, “Discovery of Orally Bioavailable N-Benzylpiperidinol Derivatives as Potent and Selective USP7 Inhibitors with In Vivo Antitumor Immunity Activity against Colon Cancer” (J Med Chem, 2022)
Activity calls are given as the source filed them. No cut-off for these calls is given here.

Tests used:
[1] = biological target: T1, Ubiquitin carboxyl-terminal hydrolase 7 (Homo sapiens, UniProt Q93009); experiment: Inhibition of full-length USP7 (unknown origin) using ubiquitin-rhodamine 110 as substrate preincubated for 30 mins followed by substrate addition and measured after 2 hrs by microplate spectrophotometer analysis
[2] = biological target: T1, Ubiquitin carboxyl-terminal hydrolase 7; experiment: Binding affinity to human USP7 (208 to 560 residues) by SPR method
[3] = tested on: MC-38; experiment: Antitumor activity against mouse MC38 cells allografted in po dosed C57BL/6J mouse assessed as reduction in tumor growth administered once daily for 21 days; type: functional, organism-based; conditions: time 21.0 day, DDE = dose-dependent effect
[4] = tested on: MC-38; experiment: Antitumor activity against mouse MC38 cells allografted in C57BL/6J mouse assessed as tumor growth inhibition at 100 mg/kg, po administered once daily for 21 days; type: functional; conditions: MC-38, 504 h, time 21 day, read-out: TGI
[5] = tested on: MC-38; experiment: Antitumor activity against mouse MC38 cells allografted in C57BL/6J mouse assessed as tumor growth inhibition at 20 mg/kg, po administered once daily for 21 days; type: functional; conditions: MC-38, 504 h, time 21 day, read-out: TGI
[6] = tested on: MC-38; experiment: Antitumor activity against mouse MC38 cells allografted in C57BL/6J mouse assessed as decrease in spleen index at 20 to 100 mg/kg, po administered daily for 20 days; type: functional, organism-based; conditions: dose 20-100 mg/kg, time 20.0 day
[7] = tested on: MC-38; experiment: Antitumor activity against mouse MC38 cells allografted in C57BL/6J mouse assessed as upregulation of CD8+ T-cells in T-lymphocytes at 100 mg/kg, po administered daily for 20 days (reference value: 5.2%); type: functional; conditions: time 20 day
[8] = tested on: MC-38; experiment: Antitumor activity against mouse MC38 cells allografted in C57BL/6J mouse assessed as upregulation of NKT-cells in CD45+ cells at 20 mg/kg, po administered daily for 20 days (reference value: […]); type: functional; conditions: time 20 day
[9] = tested on: MC-38; experiment: Antitumor activity against mouse MC38 cells allografted in C57BL/6J mouse assessed as upregulation of NKT-cells in CD45+ cells at 100 mg/kg, po administered daily for 20 days (reference value: […]); type: functional; conditions: time 20 day
[10] = tested on: MC-38; experiment: Antitumor activity against mouse MC38 cells allografted in C57BL/6J mouse assessed as upregulation of NK-cells in CD45+ cells at 20 mg/kg, po administered daily for 20 days (reference value: 3.7%); type: functional; conditions: time 20 day
[11] = tested on: MC-38; experiment: Antitumor activity against mouse MC38 cells allografted in C57BL/6J mouse assessed as upregulation of NK-cells in CD45+ cells at 100 mg/kg, po administered daily for 20 days (reference value: 3.7%); type: functional; conditions: time 20 day
[12] = tested on: MC-38; experiment: Antitumor activity against mouse MC38 cells allografted in C57BL/6J mouse assessed as downregulation of Treg in CD4+ T-cells at 100 mg/kg, po administered daily for 20 days (reference value: 10.1%); type: functional; conditions: time 20 day
[13] = tested on: MC-38; experiment: Antitumor activity against mouse MC38 cells allografted in C57BL/6J mouse assessed as downregulation of MDCS in CD45+ […] at 100 mg/kg, po administered daily for 20 days (reference value: 27.9%); type: functional; conditions: time 20 day
[14] = tested on: MC-38; experiment: Antitumor activity against mouse MC38 cells allografted in C57BL/6J mouse assessed as increase in M1 cells at 20 mg/kg, po administered daily for 20 days; type: functional, organism-based; conditions: time 20.0 day
[15] = tested on: MC-38; experiment: Antitumor activity against mouse MC38 cells allografted in C57BL/6J mouse assessed as decrease in M2 cells at 20 mg/kg, po administered daily for 20 days; type: functional, organism-based; conditions: time 20.0 day
[16] = tested on: MC-38; experiment: Antitumor activity against mouse MC38 cells allografted in C57BL/6J mouse assessed as increase in ratio of M1 to M2 cells at 20 mg/kg, po administered daily for 20 days; type: functional, organism-based; conditions: time 20.0 day
[17] = tested on: MC-38; experiment: Antitumor activity against mouse MC38 cells allografted in C57BL/6J mouse assessed as increase in TNFalpha level at 20 mg/kg, po administered daily for 20 days by ELISA (reference value: […]); type: functional; conditions: time 20 day
[18] = tested on: MC-38; experiment: Antitumor activity against mouse MC38 cells allografted in C57BL/6J mouse assessed as increase in TNFalpha level at 100 mg/kg, po administered daily for 20 days by ELISA (reference value: […]); type: functional; conditions: time 20 day
[19] = tested on: MC-38; experiment: Antitumor activity against mouse MC38 cells allografted in C57BL/6J mouse assessed as increase in INFalpha level at 100 mg/kg, po administered daily for 20 days by ELISA; type: functional, organism-based; conditions: time 20.0 day
[20] = tested on: MC-38; experiment: Antitumor activity against mouse MC38 cells allografted in C57BL/6J mouse assessed as increase in IL-2 level at 100 mg/kg, po administered daily for 20 days by ELISA; type: functional, organism-based; conditions: time 20.0 day

T1 sequence (Q93009 whole entry, the tested form may be a part): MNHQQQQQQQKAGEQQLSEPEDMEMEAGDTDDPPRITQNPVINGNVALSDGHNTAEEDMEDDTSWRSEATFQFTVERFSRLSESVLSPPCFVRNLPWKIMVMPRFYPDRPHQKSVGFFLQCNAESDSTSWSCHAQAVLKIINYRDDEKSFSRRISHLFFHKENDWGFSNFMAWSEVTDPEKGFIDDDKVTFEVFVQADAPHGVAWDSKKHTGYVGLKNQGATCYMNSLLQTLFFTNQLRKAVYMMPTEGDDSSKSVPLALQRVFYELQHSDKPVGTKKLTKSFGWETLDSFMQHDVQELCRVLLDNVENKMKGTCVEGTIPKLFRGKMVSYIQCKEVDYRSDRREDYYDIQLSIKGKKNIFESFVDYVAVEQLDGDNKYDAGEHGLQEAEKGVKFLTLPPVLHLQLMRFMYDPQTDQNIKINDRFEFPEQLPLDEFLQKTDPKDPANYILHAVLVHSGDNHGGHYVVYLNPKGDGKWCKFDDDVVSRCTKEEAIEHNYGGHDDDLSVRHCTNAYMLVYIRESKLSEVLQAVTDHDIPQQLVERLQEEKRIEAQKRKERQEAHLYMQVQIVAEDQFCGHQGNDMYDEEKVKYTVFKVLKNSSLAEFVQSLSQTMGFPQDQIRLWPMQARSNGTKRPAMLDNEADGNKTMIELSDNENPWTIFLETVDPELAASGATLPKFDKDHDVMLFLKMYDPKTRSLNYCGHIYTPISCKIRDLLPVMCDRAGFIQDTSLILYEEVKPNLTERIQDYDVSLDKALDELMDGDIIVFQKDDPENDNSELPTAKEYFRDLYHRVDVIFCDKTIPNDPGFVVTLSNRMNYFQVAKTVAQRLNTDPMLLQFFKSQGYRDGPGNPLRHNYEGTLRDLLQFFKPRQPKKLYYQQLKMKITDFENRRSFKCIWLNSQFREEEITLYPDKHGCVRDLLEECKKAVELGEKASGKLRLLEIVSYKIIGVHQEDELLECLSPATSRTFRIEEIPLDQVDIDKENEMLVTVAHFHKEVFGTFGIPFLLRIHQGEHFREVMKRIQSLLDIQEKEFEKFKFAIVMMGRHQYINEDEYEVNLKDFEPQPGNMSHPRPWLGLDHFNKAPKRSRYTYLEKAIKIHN

- IC50 [1]: 64.5 nM
- Kd [2]: 541 nM
Compound: Cn1nc2c(=O)n(CC3(O)CCN(Cc4ccc(-c5ccco5)cc4Cl)CC3)cnc2c1-c1ccc(F)cc1
- Activity [3]: Dde
- inhibition in vivo at 100 mg/kg [4]: 74.2%
- inhibition in vivo at 20 mg/kg [5]: 36.6%
- Activity [6]: Active
- Activity [7]: 9.9%
- Activity [8]: 9.8%
- Activity [9]: 18%
- Activity [10]: 7.5%
- Activity [11]: 12.2%
- Activity [12]: 5.8%
- Activity [13]: 11.4%
- Activity [14]: Active
- Activity [15]: Active
- Activity [16]: Active
- Activity [17]: 2.66 pg/mL
- Activity [18]: 2.79 pg/mL
- Activity [19]: Active
- Activity [20]: Active
